Where “and” joins values, the source holds several entries; their conditions need not be identical. Equal entries are not always repeated. Entries after “also recorded” stand apart in the source; their conditions may differ. Where two headings read alike, the source gives them in different places.
Columns and labels:
γH2AX in MCF10A cells = assay: DNA damage marker γH2AX, p53wt MCF10A; assay type: cell-based, human
Method: (§1) Cells were grown on glass coverslips (22×22 mm) and treated with inhibitors for various times, then fixed with 4% PFA and permeabilized with 0.05% Triton X-100. For γH2AX staining samples were blocked with 3% milk in PBS for 30 min at room temperature (RT), and then incubated for 1 h with antibodies to γH2AX (1:400) in 1% milk/PBS followed by incubation with Texas red-conjugated secondary antibody (1:500) for 30 min at RT. For evaluation of genomic EdU, cells were grown on glass coverslips, and then pulse-labeled with EdUrd as described for flow cytometry. Cells were fixed at various times with 4% PFA and permeabilized with 0.05% Triton X-100, and then EdU was labeled with Cy3 azide using ‘click-it’ reaction as described above. DNA was labeled with Hoechst 33342 before mounting on glass slides. Fluorescence images were taken with a Plan Apochromat 60×/1.40 NA oil objective at ambient temperature using Nikon TE2000-E inverted microscope equipped with a charge-coupled device camera (CoolSNAP HQ; Photometrics). The images were acquired using MetaVue imaging software (v7.7.3, Molecular Devices). Experiments were repeated twice with representative images shown.
(§2) Immunoblotting: Tumor cells were seeded in a 6-well plate at 300,000 cells/well and treated with various reagents. Whole-cell lysates were prepared using NP40 lysis buffer containing PMSF, Na-Orthovanadate, and protease inhibitor cocktail. Snap-frozen tumor tissues were ground and suspended in NP40 lysis buffer. Protein concentrations in lysates were quantitated and 15 μg of protein/lane were resolved on a 10% SDS-PAGE gel. Proteins were transferred onto a nitrocellulose membrane in 10% Methanol-SDS buffer and probed with appropriate antibodies. ECL reagent was used to visualize immune-complexes on radiographic films.

[1] = tested on: γH2AX in p53mt MDA-MB-231 cells; assay: DNA damage marker γH2AX, p53mt cancer cells; assay type: cell-based, human; conditions: p53mt / p53-deficient cells
Method: as §1
Immunoblotting: Tumor cells were seeded in a 6-well plate at 300,000 cells/well and treated with various reagents. […] Protein concentrations in lysates were quantitated and 15 μg of protein/lane were resolved on a 10% SDS-PAGE gel. […]

MDA-MB-231 cells [2] = assay: EdU-removal assay / genomic EdU, MDA-MB-231; assay type: cell-based, human
Method: (§3) All samples were analyzed on an LSRFortessa Cytometer (BD Biosciences) running FACSDiva (Version 6.1.3), and the data were processed using FCS Express 7 (Version 7.04.0016). For the EdUrd pulse experiments, 300,000 cells per well were seeded in a 6-well plate, and the following day media was replaced with base media containing 5% dialyzed FBS. Cells were then incubated with 10 μM EdUrd for two hours, while untreated cells served as the negative control. Following the two-hour pulse, cells were washed twice with DPBS and the media was replenished. Collection of cells began at t=0 hr up to t=72 hr post EdUrd-pulse. Cells were collected using standard trypsinization, washed in 1% BSA in DPBS, and fixed in 4% paraformaldehyde for 15 minutes. Cells underwent two more washes in 1% BSA/DPBS before being permeabilized in 1× saponin buffer. […] Samples were sorted using a BD LSRFortessa cytometer running FACSDiva (Version 6.1.3), and the data were analyzed using ModFit Lt software (Version 5.0.9). […]
(§4) Cells were grown on glass coverslips (22×22 mm) and treated with inhibitors for various times, then fixed with 4% PFA and permeabilized with 0.05% Triton X-100. […] Fluorescence images were taken with a Plan Apochromat 60×/1.40 NA oil objective at ambient temperature using Nikon TE2000-E inverted microscope equipped with a charge-coupled device camera (CoolSNAP HQ; Photometrics). […]

MDA-MB-231 cells [3] = assay: Cytotoxicity assay (methylene blue), MDA-MB-231; assay type: cell-based, human; conditions: single agent, read-out: IC50, cytotoxicity, drug alone
Method: (§5) Cells were plated at a density of 5,000 cells/well in a 96 well-plate and then treated with the appropriate drugs at varying concentrations for 24 hours. Media was replenished with media with or without PARP inhibitors and cell were incubated for 96 hours. Cells were stained with 1% Methylene Blue for 30 minutes, rinsed with water, dried and then solubilized in 5% SDS in PBS, and read at 650 nm. IC50 values were generated using GraphPad Prism8 (Version 8.4.2).
(§6) Cytotoxicity Assay: Cells were plated at a density of 5,000 cells/well in a 96 well-plate and then treated with the appropriate drugs at varying concentrations for 24 hours. Media was replenished with media with or without PARP inhibitors and cell were incubated for 96 hours. Cells were stained with 1% Methylene Blue for 30 minutes, rinsed with water, dried and then solubilized in 5% SDS in PBS, and read at 650 nm. IC50 values were generated using GraphPad Prism8 (Version 8.4.2).

[4] = Cytotoxicity assay (methylene blue), MCF10A; assay type: cell-based, human; conditions: human, MCF10A cells (p53wt), single agent, read-out: IC50, cytotoxicity, drug alone
Method: as §5, §6

MCF10A cells [5] = assay: Cytotoxicity assay (methylene blue), MCF10A; assay type: cell-based, human; conditions: MCF10A (p53wt), single agent; read-out: IC50, cytotoxicity, drug alone
Method: as §5, §6

[6] = tested on: p53-deficient cancer cell lines; assay: Cytotoxicity assay, p53-deficient (p53mt) cancer cell lines; assay type: cell-based, human
Method: as §5, §6

[7] = tested on: PARylation activity in MCF10A and MDA-MB-231 cells; assay: Inhibition of PARylation activity in cell culture (immunoblot); assay type: cell-based, human; conditions: 24 hrs
Method: as §2

[8] = tested on: p53-p21 signaling in MCF10A cells; assay: p53-p21 signaling immunoblot, MCF10A; assay type: cell-based, human; conditions: for p53-p21 signaling response: MCF10A (p53wt)
Method: as §2

[9] = tested on: p53-p21 signaling in MDA-MB-231 cells; assay: p53-p21 signaling immunoblot, MDA-MB-231; assay type: cell-based, human; conditions: MDA-MB-231 (p53mt)
Method: as §2

MCF10A cells [10] = assay: Cell cycle analysis by flow cytometry, MCF10A; assay type: cell-based, human; conditions: MCF10A (p53wt)
Method: as §3
(§7) Flow cytometry: All samples were analyzed on an LSRFortessa Cytometer (BD Biosciences) running FACSDiva (Version 6.1.3), and the data were processed using FCS Express 7 (Version 7.04.0016). […] Samples were sorted using a BD LSRFortessa cytometer running FACSDiva (Version 6.1.3), and the data were analyzed using ModFit Lt software (Version 5.0.9). […]

MDA-MB-231 cells [11] = assay: Cell cycle analysis by flow cytometry, p53mt cancer cells; assay type: cell-based, human
Method: as §3, §7

MCF10A cells [12] = assay: EdU-removal assay, MCF10A; assay type: cell-based, human; conditions: 0.5 μM Olaparib after 2 hr EdU pulse
Method: as §3, §4

MDA-MB-231 tumors = assay type: in vivo; conditions: 5 days-on, 2 days-off
Method: (§8) Tumor growth was monitored by measuring tumor diameters with electronic calipers twice/week. Volumes were calculated using the formula (length)×(width)2/2. Mouse weights were measured twice/week. […] Drugs were given at 50 mg/kg by oral gavage on schedule 5-days-on and 2-days-off. At the endpoint, mice were euthanized and subjected to necropsy and organ collection. Tumor tissues were collected for RNA and protein analyses by snap-freezing in liquid nitrogen. Blood was collected for CBC by cardiac puncture.
Statistical significance of data comparisons were determined using the Student's unpaired t-test with a two-tailed distribution. Statistical significance was achieved when P<0.05. […]

MIAPACA-2 tumors = assay: MIAPACA-2 subcutaneous pancreatic cancer xenograft in mice; assay type: in vivo; conditions: 50 mg/kg each drug, oral gavage, 5 days-on, 2 days-off
Method: as §8, with “calipers” for “calipers twice/week. Volumes were calculated using the formula (length)×(width)2/2. Mouse weights were measured”
Statistical significance was achieved when P<0.05.

[13] = tested on: BRCA1-deficient cell lines; conditions: cited from earlier work
[14] = target: thymidylate synthase (TS) (Homo sapiens, UniProt P04818); conditions: cited from earlier work
[15] = Homo sapiens, MDA-MB-231, MDA-MB-231 (p53mt)

Sequence of thymidylate synthase (TS) (P04818 whole entry, species assumed): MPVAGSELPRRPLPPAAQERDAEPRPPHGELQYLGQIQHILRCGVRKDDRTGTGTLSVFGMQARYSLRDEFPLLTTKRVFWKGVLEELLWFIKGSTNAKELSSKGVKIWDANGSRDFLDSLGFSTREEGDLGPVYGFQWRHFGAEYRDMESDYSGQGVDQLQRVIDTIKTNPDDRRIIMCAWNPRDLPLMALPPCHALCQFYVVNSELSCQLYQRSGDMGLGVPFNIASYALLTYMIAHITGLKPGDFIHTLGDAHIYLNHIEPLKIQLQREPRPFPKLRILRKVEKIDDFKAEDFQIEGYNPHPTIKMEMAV

In the case of C#Cc1cn([C@H]2C[C@H](O)[C@@H](CO)O2)c(=O)[nH]c1=O [EdUrd, 5-ethynyl-2′-deoxy-uridine], the “γH2AX (DNA damage) response” value (γH2AX in MCF10A cells) is reported as “transient increase of γH2AX levels”, the “γH2AX (DNA damage) response” value [1] is reported as “continued accumulation of DNA damage signal” and the “Increase of EdU+ fraction after EdUrd-pulse” value (MDA-MB-231 cells [2]; 24 hrs after 2 hr EdUrd pulse, flow cytometry) is reported as ~25%.
For O=C(c1cc(Cc2n[nH]c(=O)c3ccccc23)ccc1F)N1CCN(C(=O)C2CC2)CC1 [olaparib], the IC50 (MDA-MB-231 cells [3]; [15]) was 17.6 µM, the IC50 (MDA-MB-231 cells [3]; MDA-MB-231 (p53mt)) was 17.4 µM and the IC50 at 24 h [4] was 14.5 µM. The IC50 (MCF10A cells [5]) was 15.3 µM, the IC50 ([6]; Homo sapiens, read-out: IC50 for cancer cells, PARPi alone) was 16 to 24 µM and the “Concentration inhibiting PARylation activity in cells” value [7] was 100 to 500 nM and 50 to 100 nM. For the same compound, the “Concentration activating p53-p21 signaling” value ([8]; MCF10A) was 200 nM, the p53-p21 signaling response [8] was “induced p53-p21 signaling” and the “Concentration inducing p53-p21 signaling” value ([8]; MCF10A, 24 hrs) was 0.2 to 0.5 µM. For the same compound, the p53-p21 signaling response [9] was “p21 was not regulated; also recorded: no response was observed”, the Cell cycle effect (MCF10A cells [10]) was “increased G1-population” and the Cell cycle effect (MDA-MB-231 cells [11]) was “increased G2 fraction at the expense of S phase”. For the same compound, the “Effect on removal of EdU” value (MCF10A cells [12]) was “significantly delayed removal of EdU”, the “Effect on removal of EdU” value (MDA-MB-231 cells [2]; MDA-MB-231, 0.5 μM Olaparib after 2 hr EdU pulse) was “had no effect” and the “Median survival (time-to-arrive at 300 mm3 tumor size)” value (MDA-MB-231 tumors; 50 mg/kg each drug, oral gavage) was 21 days. The Tumor growth (MDA-MB-231 tumors; 50 mg/kg oral gavage) was “did not affect tumor growth”, the “Median survival (time-to-arrive at 500 mm3 tumor size)” value (MIAPACA-2 tumors) was 21 days and the IC50 [13] was < 1 µM.
In the case of O=c1[nH]cc(F)c(=O)[nH]1 [5FU, 5-fluoro-uracil], the “Cooperation of 5FU with olaparib in cytotoxicity” value ([6]; olaparib 0.5 μM; tested cell lines) is reported as “did not cooperate with olaparib; also recorded: does not enhance cytotoxicity”.
For O=c1[nH]c(=O)n([C@H]2C[C@H](O)[C@@H](CO)O2)cc1F [FdUrd, 5-fluoro-2′-deoxyuridine], the IC50 (MDA-MB-231 cells [3]; [15]) was 5.5 µM, the IC50 at 24 h [4] was 1.6 µM and the p53-p21 signaling response [8] was “induced p53-p21 signaling”. For the same compound, the “γH2AX (DNA damage) response” value (γH2AX in MCF10A cells) was “induced transiently at 6 hrs of FdU exposure and declined by 48 hrs” and the “γH2AX (DNA damage) response” value [1] was “induced by 24 hrs and remained at high levels at 48 hrs”.
In the case of O=c1[nH]c(=O)n([C@H]2C[C@H](O)[C@@H](CO)O2)cc1C(F)(F)F [TFT, 5-trifluoro-2′-deoxythymidine], the “Inhibition of TS” value [14] is given as 0.38 nM.
With Cn1ncnc1[C@H]1c2n[nH]c(=O)c3cc(F)cc(c23)N[C@@H]1c1ccc(F)cc1 [talazoparib] the IC50 ([6]; Homo sapiens; read-out: IC50 for cancer cells, PARPi alone) was 2 to 4 µM, the “Concentration inhibiting PARylation activity in cells” value [7] was 50 nM and the p53-p21 signaling response [8] was “p21 induction was observed only in p53wt cells”. For the same compound, the Cell cycle effect (MDA-MB-231 cells [11]) was “increased G2 fraction at the expense of S phase”.
With COc1ccc(C2=N[C@@H](c3ccc(Cl)cc3)[C@@H](c3ccc(Cl)cc3)N2C(=O)N2CCNC(=O)C2)c(OC(C)C)c1 [Nutlin-3A] the “γH2AX (DNA damage) response” value (γH2AX in MCF10A cells) was “did not induce DNA damage γH2AX marker”.

— patent publication US12551498B2, “Treatment of P53-deficient cancers” (Health Research, Inc., priority 2019, dated 2026)
